Experimental data as given in patent US10150755B2, “ASK1 inhibitor compounds and uses thereof” (Seal Rock Therapeutics, Inc., priority 2017, dated 2018).

The compounds below were run against ASK1 (Homo sapiens (Human), UniProt Q99683) (assay: ASK1 Kinase Assay (Promega ASK1 Kinase Enzyme System, ADP-Glo)). Conditions: enzyme 50 nM, ATP 10 μM.
Assay type: biochemical
Protocol: The ASK1 enzymatic assay was run following Promega ASK1 Kinase Enzyme System (Cat #V3881). The kit provides the protocol, enzymes and all reagents necessary to run an assay. Firstly, the compounds, enzyme, substrate and ATP were diluted in provided assay buffer. The final concentration of the enzyme was 50 nM, substrate (Myelin basic protein) 1 μg/ml and ATP 10 μM. The compound and the enzyme were pre-incubated in a 384 well white solid bottom plate (Greiner, Cat#784075) for 10 minutes. After incubation, the substrate and ATP were added and incubated for further 60 minutes. After 60 minutes, ADP-Glo™ was added and plate was incubated for another 40 minutes. After 40 minutes, Kinase Detection Reagent was added and the plate was incubated for 45 minutes. After 45 minutes, plate was read on Perkin Elmer EnVision using luminescence read (0.5 seconds/well).

Chain of ASK1 (Q99683 649-946 limits assumed): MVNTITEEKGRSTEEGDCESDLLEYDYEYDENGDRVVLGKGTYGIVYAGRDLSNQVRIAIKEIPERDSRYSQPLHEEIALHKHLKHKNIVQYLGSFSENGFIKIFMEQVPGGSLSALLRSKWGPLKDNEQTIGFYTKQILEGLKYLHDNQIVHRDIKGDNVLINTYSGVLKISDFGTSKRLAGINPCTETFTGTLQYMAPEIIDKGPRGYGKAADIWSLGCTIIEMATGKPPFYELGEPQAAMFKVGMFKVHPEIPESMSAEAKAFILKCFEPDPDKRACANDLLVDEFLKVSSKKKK

`Cn1ccc(-c2ccc3c(c2)C(=O)N(c2cccc(-c4nncn4C4CC4)n2)C3)n1` [Compound 39, 2-(6-(4-cyclopropyl-4H-1,2,4-triazol-3-yl)pyridin-2-yl)-6-(1-methyl-1H-pyrazol-3-yl)isoindolin-1-one] and `Cn1ccnc1-c1ccc2c(c1)C(=O)N(c1cccc(-c3nncn3C3CC3)n1)C2` [Compound 57, 2-(6-(4-cyclopropyl-4H-1,2,4-triazol-3-yl)pyridin-2-yl)-6-(1-methyl-1H-imidazol-2-yl)isoindolin-1-one] cannot be ordered by IC50: less than 200 nM for the first, less than 200 nM for the second.

`COC(=O)c1ccc2c(c1)C(=O)N(c1cccc(-c3nncn3C3CC3)n1)C2` [Compound 72, methyl 2-(6-(4-cyclopropyl-4H-1,2,4-triazol-3-yl)pyridin-2-yl)-3-oxoisoindoline-5-carboxylate] and `Nc1ccc2c(c1)CN(c1cccc(-c3nncn3C3CC3)n1)C2=O` [Compound 31, 5-amino-2-(6-(4-cyclopropyl-4H-1,2,4-triazol-3-yl)pyridin-2-yl)isoindolin-1-one] cannot be ordered by IC50: less than 200 nM for the first, less than 200 nM for the second.

`Cc1cncc(-c2ccc3c(c2)C(=O)N(c2cccc(-c4nncn4C4CC4)n2)C3)c1` [Compound 54, 2-(6-(4-cyclopropyl-4H-1,2,4-triazol-3-yl)pyridin-2-yl)-6-(5-methylpyridin-3-yl)isoindolin-1-one] and `Cc1ncc(-c2ccc3c(c2)C(=O)N(c2cccc(-c4nncn4C4CC4)n2)C3)s1` [Compound 51, 2-(6-(4-cyclopropyl-4H-1,2,4-triazol-3-yl)pyridin-2-yl)-6-(2-methylthiazol-5-yl)isoindolin-1-one] cannot be ordered by IC50: less than 200 nM for the first, less than 200 nM for the second.

Compared with `O=C1c2ccccc2CN1c1cccc(-c2nnc3n2CCCC3)n1` [Compound 77, 2-(6-(5,6,7,8-Tetrahydro-[1,2,4]triazolo[4,3-a]pyridin-3-yl)pyridin-2-yl)isoindolin-1-one], `O=C1c2ccccc2CN1c1cccc(-c2nnc3n2CCC3)n1` [Compound 76, 2-(6-(6,7-dihydro-5H-pyrrolo[2,1-c][1,2,4]triazol-3-yl)pyridin-2-yl)isoindolin-1-one] is lower in IC50: 1000 to 10000 nM for the first, 200 to 1000 nM for the second.

`O=C(NC1CCOCC1)c1ccc2c(c1)CN(c1cccc(-c3nncn3C3CC3)n1)C2=O` [Compound 9, 2-(6-(4-cyclopropyl-4H-1,2,4-triazol-3-yl)pyridin-2-yl)-1-oxo-N-(tetrahydro-2H-pyran-4-yl)isoindoline-5-carboxamide] and `O=C(c1ccc2c(c1)CN(c1cccc(-c3nncn3C3CC3)n1)C2=O)N1CCSCC1` [Compound 24, 2-(6-(4-cyclopropyl-4H-1,2,4-triazole-3-yl)pyridin-2-yl)-5-(thiomorpholine-4-carbonyl)isoindolin-1-one] cannot be ordered by IC50: less than 200 nM for the first, less than 200 nM for the second.

`O=C1c2cc(-c3ccccn3)ccc2CN1c1cccc(-c2nncn2C2CC2)n1` [Compound 58, 2-(6-(4-cyclopropyl-4H-1,2,4-triazol-3-yl)pyridin-2-yl)-6-(pyridin-2-yl)isoindolin-1-one] and `O=C1c2cc(-c3cccnn3)ccc2CN1c1cccc(-c2nncn2C2CC2)n1` [Compound 59, 2-(6-(4-cyclopropyl-4H-1,2,4-triazol-3-yl)pyridin-2-yl)-6-(pyridazin-3-yl)isoindolin-1-one] cannot be ordered by IC50: less than 200 nM for the first, less than 200 nM for the second.

`CN(C)c1cc2c(cc1-c1cccnc1)C(=O)N(c1cccc(-c3nncn3C3CC3)n1)C2` [Compound 67, 2-(6-(4-cyclopropyl-4H-1,2,4-triazol-3-yl)pyridin-2-yl)-5-(dimethylamino)-6-(pyridin-3-yl)isoindolin-1-one] and `O=C1c2cc(-c3cccnc3)c(Cl)cc2CN1c1cccc(-c2nncn2C2CC2)n1` [Compound 65, 5-chloro-2-(6-(4-cyclopropyl-4H-1,2,4-triazol-3-yl)pyridin-2-yl)-6-(pyridin-3-yl)isoindolin-1-one] cannot be ordered by IC50: less than 200 nM for the first, less than 200 nM for the second.

First: O=C1c2ccccc2CN1c1cccc(-n2nncc2C2CC2)n1 [Compound 83, 2-(6-(5-cyclopropyl-1H-1,2,3-triazol-1-yl)pyridin-2-yl)isoindolin-1-one]
Second: O=C1c2ccccc2CN1c1cccc(-n2ccnn2)n1 [Compound 84, 2-(6-(1H-1,2,3-triazol-1-yl)pyridin-2-yl)isoindolin-1-one]
The IC50 of the first is lower: less than 200 nM for the first, 200 to 1000 nM for the second.

`O=C1c2ccc(-c3cc[nH]n3)cc2CN1c1cccc(-c2nncn2C2CC2)n1` [Compound 28, 2-(6-(4-cyclopropyl-4H-1,2,4-triazol-3-yl)pyridin-2-yl)-5-(1H-pyrazol-3-yl)isoindolin-1-one] and `Cn1cnc(-c2ccc3c(c2)CN(c2cccc(-c4nncn4C4CC4)n2)C3=O)c1` [Compound 30, 2-(6-(4-cyclopropyl-4H-1,2,4-triazol-3-yl)pyridin-2-yl)-5-(1-methyl-1H-imidazol-4-yl)isoindolin-1-one] cannot be ordered by IC50: less than 200 nM for the first, less than 200 nM for the second.

`O=C1CN(C(=O)c2ccc3c(c2)CN(c2cccc(-c4nncn4C4CC4)n2)C3=O)CCN1` [Compound 20, 2-(6-(4-cyclopropyl-4H-1,2,4-triazol-3-yl)pyridin-2-yl)-5-(3-oxopiperazine-1-carbonyl)isoindolin-1-one] and `O=C(NCCn1ccnc1)c1ccc2c(c1)CN(c1cccc(-c3nncn3C3CC3)n1)C2=O` [Compound 5, N-(2-(1H-imidazol-1-yl)ethyl)-2-(6-(4-cyclopropyl-4H-1,2,4-triazol-3-yl)pyridin-2-yl)-1-oxoisoindoline-5-carboxamide] cannot be ordered by IC50: less than 200 nM for the first, less than 200 nM for the second.

`O=C1c2cc(-c3cccnc3)c(F)cc2CN1c1cccc(-c2nncn2C2CC2)n1` [Compound 63, 2-(6-(4-cyclopropyl-4H-1,2,4-triazol-3-yl)pyridin-2-yl)-5-fluoro-6-(pyridin-3-yl)isoindolin-1-one] and `O=C1c2cc(-c3cccnc3F)ccc2CN1c1cccc(-c2nncn2C2CC2)n1` [Compound 53, 2-(6-(4-cyclopropyl-4H-1,2,4-triazol-3-yl)pyridin-2-yl)-6-(2-fluoropyridin-3-yl)isoindolin-1-one] cannot be ordered by IC50: less than 200 nM for the first, less than 200 nM for the second.

In the case of `O=C1c2cc(-c3ccc(C4CC4)nn3)ccc2CN1c1cccc(-c2nncn2C2CC2)n1` [Compound 61, 2-(6-(4-cyclopropyl-4H-1,2,4-triazol-3-yl)pyridin-2-yl)-6-(6-cyclopropylpyridazin-3-yl)isoindolin-1-one], the IC50 is reported as less than 200 nM.

Each compound was assayed on LPS-induced TNFalpha in Human PBMCs (assay: Inhibition of LPS-induced TNFalpha in Human PBMCs). Conditions: PBMC, 100 ng/ml LPS, 6 hr, read-out: TNFa Inhibition IC50.
Assay type: cell-based
Protocol: Cryopreserved human PBMCs were obtained from AllCells (cat# PB003F). After thawing/dilution protocols using RPMI medium supplemented with 5% FBS (heat inactivated), 100 ul/well of 1×10^6 cells/ml were plated into 96 well tissue culture plates (Corning). Cells were then pre-incubated for 1 hr at 37° C. in humidified 5% CO2 and 95% air with test compounds diluted in DMSO (final DMSO concentration 0.3%). Each compound was tested at 10 concentrations in duplicate wells. After the pre-incubation, 100 ng/ml LPS (E. Coli; Sigma) in RPMI media with 5% FBS was added for a 6 hr incubation at 37° C. in humidified 5% CO2 and 95% air. Controls on each plate included cells and LPS only, cells and media only (no LPS), and media only. After the 6 hr incubation, plates were centrifuged and the supernatants transferred to a new plate and frozen for subsequent TNFalpha analysis. Human TNFalpha was analyzed by ELISA according to the manufacturer's instructions (BD Sciences, BD OptEIA™ Cat#550610) and analyzed on a SpectraMax M series (Molecular Devices) microplate reader at OD 450 nm. IC50s were calculated using XLFit4 curve fitting software (IDBS) and a 4-parameter one-site sigmoid dose response fit.

`O=C1c2cc(-c3cccnc3)ccc2CN1c1cccc(-c2nncn2C2CC2)n1` [Compound 40, 2-(6-(4-cyclopropyl-4H-1,2,4-triazol-3-yl)pyridin-2-yl)-6-(pyridin-3-yl)isoindolin-1-one] and `Cc1ccncc1-c1ccc2c(c1)C(=O)N(c1cccc(-c3nncn3C3CC3)n1)C2` [Compound 41, 2-(6-(4-cyclopropyl-4H-1,2,4-triazol-3-yl)pyridin-2-yl)-6-(4-methylpyridin-3-yl)isoindolin-1-one] cannot be ordered by IC50: less than 2000 nM for the first, less than 2000 nM for the second.

`COc1cc2c(cc1-c1cccnc1)C(=O)N(c1cccc(-c3nncn3C3CC3)n1)C2` [Compound 66, 2-(6-(4-cyclopropyl-4H-1,2,4-triazol-3-yl)pyridin-2-yl)-5-methoxy-6-(pyridin-3-yl)isoindolin-1-one] and `O=C1c2cc(-c3cnc(C4CC4)cn3)ccc2CN1c1cccc(-c2nncn2C2CC2)n1` [Compound 60, 2-(6-(4-cyclopropyl-4H-1,2,4-triazol-3-yl)pyridin-2-yl)-6-(5-cyclopropylpyrazin-2-yll)isoindolin-1-one] cannot be ordered by IC50: less than 2000 nM for the first, greater than 10 nM for the second.
